Residues, ends and D or L forms follow the SMILES beside them. *: point of attachment. Cbz = O=C(OCc1ccccc1)*; CH2F = FC*
Legend:
Type in all cases: cell-based
[1] = test system: granulocytes in whole blood; experiment: Whole blood assay: survival of granulocytes by hypodiploid analysis via flow cytometry
Protocol: The following reagents were used: • anti-CD32-FITC monoclonal antibody obtained from Pharmingen. • Lysing Solution (10X Stock: 89.9 g NH4Cl; • 10.0 g KHCO; • 0.37 g tetrasodium EDTA; • dissolve in 1 liter dH2O. Adjust to pH 7.3. Store at 4°C in a tightly closed bottle. • Dilute 1:10 with dH2O prior to use.) • (DPBS without calcium or magnesium obtained from Irivine Scientific. • 2% fetal bovine serum in DPBS stored at 4°C. • 50 µg/ml propidium iodide in DPBS sterile filtered and stored at 4°C.)
The following protocol was followed: • 200 µl blood sample/2.8 ml 1X lysis solution in a 15 ml polypropylene conical tube. • Cap and invert to mix. Leave at room temperature for 3-5 minutes. • Centrifuge in a table-top Sorvall at 1200 rpm for 5 minutes at 4°C. • Aspirate supernate. Resuspend pellet in 200 µl/sample 2% FBS/DPBS. Add 20 µl/sample anti-CD32-FITC. Incubate 30 minutes on ice in the dark. • Add 5 ml/sample DPBS. Centrifuge at 1000 rpm for 5 minutes at 4°C. • Aspirate supemate. Resuspend pellet in 1 ml/sample 2% FBS/DPBS. • Add 3 ml/sample ice-cold 95% EtOH dropwise while vortexing gently. • Incubate samples on ice in the dark for 30 minutes. • Centrifuge at 1000 rpm for 5 minutes at 4°C. • Resuspend each sample in 50 µl 5 mg/ml RN'ase. Transfer sample to 900 µl/sample • 50 µg/ml Propidium Iodide in 12x75 mm Falcon polystyrene tubes. • Incubate on ice for 30 minutes. • Analyze samples by flow cytometry (argon laser) for forward and side scatter and fluorescence.
Survival of granulocytes in whole blood was measured by hypodiploid analysis in a similar fashion to isolated granulocytes via flow cytometry. ICE/ced-3 inhibitors of the present invention maintained survival of granulocytes in whole blood for 96 hours at room temperature as indicated in the table below: Percentage of diploid granulocytes in whole blood

granulocytes [2] = experiment: Granulocyte survival in culture: analysis of hypodiploid nuclei by flow cytometry (propidium iodide); details: Figure 6; for IC50: isolated granulocytes cultured at 37°C, nuclear hypodiploidy, propidium iodide stain via flow cytometry, read-out: IC50 (effects on granulocyte survival)
Protocol: Whole blood anticoagulated with Acid Citrate Dextrose (ACD) with a ratio of 1:5 ACD to blood was collected (~100 ml).
Using polypropylene plastic ware, neutrophils are isolated as follows: 30 ml of the whole blood is added to 50 ml polypropylene centrifuge tubes containing 15 ml of 6% Dextran (in Saline). The blood is allowed to sediment for approximately 1 hour at room temperature.
The turbid straw colored layer harvested from the top of the cylinders into 50 ml conical polypropylene tubes. The blood cells were pelleted by centrifugation at 240 xg (Sorvall centrifuge at 1200 rpm) for 12 min. at 4°C with the brake on low.
The supernatant was aspirated and the pooled pellet resuspended in 40-50 ml cold PBS (w/o Ca, Mg), and centrifuged at 240 xg (Sorvall centrifuge at 1200 rpm) for 6 min. at 4°C with the brake on high.
The supernatant was aspirated and the pellet resuspended in 12 ml of cold cell culture grade water. The suspension was titriated gently with a pipet for 30 seconds then add 4 ml of cold 0.6 M KCl. (Brought up to 50 ml with cold PBS (w/o Ca, Mg)) and then centrifuged at 300 xg (Sorvall centrifuge at 1400 rpm) for 6 min. at 4°C with the brake on high.
The above was repeated one time.
The supernatant was aspirated and the cells resuspended in 2.5 ml cold PBS (w/o Ca, Mg). The cell suspension was layered over 3 ml Ficoll-Hypaque in a 15 ml polypropylene conical tube and centrifuged at 400 xg (Sorvall centrifuge at 1900 rpm) for 30 min. at 4°C with the brake on low.
The suspension aspirated was down to the neutrophil pellet. […]
The supernatant was aspirated and the neutrophil pellet resuspended in 4.0 ml cold PBS (w/o Ca, Mg) on ice. 10 µl of the neutrophil cell suspension was diluted with 990 µl of Trypan blue (1:100) and cells counted using a hemacytometer. The cell number and viability were determined. […]
• (50 µg/ml propidium iodide (Sigma catalog#P4170); 0.1% Triton X-100; and 0.1% sodium citrate). • Neutrophils were pelleted at 4°C and the supernate aspirated. • Neutrophils were resuspended in hypotonic fluorochrome solution at a density of 5x10^6 cells/ml. Propidium iodide fluorescence of individual nuclei was evaluated in FL2 and measured on a logarithmic scale while gating on physical parameters in forward and side scatter to exlude cell debris.
At least 10,000 events per sample were collected and the results were evaluated relative to a non-apoptotic neutrophil population. […]
The present invention provides methods to enhance the ex vivo survival of neutrophils/granulocytes. […] The presence of hypodiploid DNA is a measure of apoptosis, and is assessed using a propidium iodide stain via flow cytometry. […]

granulocytes [3] = experiment: Respiratory burst in isolated neutrophils measured by chemiluminescence (opsonized zymosan, lucigenin); details: Figure 7
Protocol: Whole blood anticoagulated with Acid Citrate Dextrose (ACD) with a ratio of 1:5 ACD to blood was collected (150 ml). Neutrophils were isolated as described above.
Opsonized zymosan was prepared by suspending 125 mg zymosan particles in 25 ml pooled human serum (5 mg/ml) and incubating them for 20 minutes at 37°C. Centrifuge the suspension and resuspend the particles in 7 ml of PBS (18 mg/ml) and stored on ice until use (vortex prior to pipetting).
50 ml of a 250 µM solution of Lucigenin (MW 510.5) was prepared by dissolving 6.4 mg of the solid in 50 ml of PBS-G (+ Ca, Mg). 10 µl of PBS-G (+ Ca, Mg) to the wells in a white 96 well plate.
50 µl of the 250 µM Lucigenin solution was added to the wells in a white 96 well plate.
Cell preparations were obatined from cell culture (concentration at time zero= 5.0 x 10^6 cells/ml) with PBS-G (+ Ca, Mg).
20 µl of the neutrophil suspension was suspended to the appropriate wells and the plate was incubated the plate at 37° C for three minutes. 10 µl of the opsonized zymosan was added to the wells.
The plate was read on the luminometer (Labsystems Luminoskan, Needham Heights, MA) for 14 min. at 37° C in the kinetic mode and record results using the software DeltaSoft.
The ability to undergo the respiratory burst is another measure of granulocyte viability. The respiratory burst is a physiological response of granulocytes to foreign stimuli such as bacteria. In this example, the method for inducing the respiratory burst utilized opsonized bacterial zymosan. The respiratory burst was measured via chemiluminescence.

[4] = after granulocyte culture for 72 hours
[5] = granulocyte culture for 48 hours

Compound	Percentage of diploid granulocytes in whole blood ([1]; 96 hours at room temperature) [%]	Percentage of diploid granulocytes in whole blood ([1]; time zero, 0 min) [%]	IC50 (granulocytes [2]) [µM]	respiratory burst (granulocytes [3]; [4])	respiratory burst (granulocytes [3]; [5])	effect on improving granulocyte survival (granulocytes [2]; isolated granulocytes in culture, at 48 hours)	respiratory burst (granulocytes [3]; no time stated)
Cc1c(C(=O)N[C@H](C(=O)NC(CC(=O)O)C(=O)CF)C(C)C)n(C)c2ccccc12 (stereo partly shown) [Example 43, N-[(1,3-Dimethylindole-2-Carbonyl)Valinyl]-3-Amino-4-Oxo-5-Fluoropentanoic Acid]	91	96	< 5	partially maintained	substantially maintained		
Cc1c(C(=O)N[C@H](C(=O)NC(CC(=O)O)C(=O)COC(=O)c2c(Cl)cccc2Cl)C(C)C)n(C)c2ccccc12 (stereo partly shown) [Example 70, N-[N-(1,3-Dimethyl-indole-2-carbonyl)-Valinyl]-3-amino-5-(2,6-dichlorobenzoyl)oxy-4-oxo-pentanoic acid]	89	96	< 5	partially maintained	substantially maintained		
COC(=O)C[C@H](NC(=O)[C@H](C)NC(=O)[C@@H](NC(=O)OCc1ccccc1)C(C)C)C(=O)CF [zVADfmk, reference compound] (Cbz-Val-Ala-Asp(OMe)-CH2F)						weak effect	did not maintain the respiratory burst
O=C(O)CC(NC(=O)[C@@H]1Cc2cccc3c2N1C(=O)[C@@H](NC(=O)OCc1ccccc1)CC3)C(=O)CF (relative stereo) [Example 106]			< 5				

Reference: patent publication EP1647279A2, “Inhibition of apoptosis using interleukin-1beta-converting enzyme (ICE)/CED-3 family inhibitors” (priority 1996, dated 1998)
